The results in this text go back to patent publication US8697911B2, “Rho kinase inhibitors” (Boehringer Ingelheim International GmbH, priority 2010, dated 2014).

pIC50: −log10 of the molar value.

The first test deals with T1, ROCKII (1-543) (Homo sapiens (Human), UniProt O75116). Briefly: Luciferin-Luciferase Assay (Assay 1). As to conditions: luciferin-luciferase residual ATP; 750 nM ATP, 7.5 nM kinase. It is filed as biochemical. As to the method:
1. Luciferin-Luciferase Assay
The activity of ROCKII (1-543) kinase is measured utilizing Cambrex PKLight ATP Detection Reagent, a homogeneous assay technology using luciferin-luciferase to quantify residual ATP. The assay is performed in 384-well low-volume, white, non-binding surface microtiter plates (Corning). The assay buffer is 25 mM HEPES, pH 7.5, 10 mM MgCl2, 50 mM KCl, 0.2% BSA, 0.01% CHAPS, 100 μM Na3VO4 and 0.5 mM DTT. Test compounds, dissolved in neat DMSO at 500 μg/mL, are serially diluted for dose response for a final starting concentration of 3 μg/mL in 1% DMSO of assay buffer. ROCKII (1-543) (62,408 Da) is diluted in assay buffer to a final concentration of 7.5 nM in a total volume of 15 μL. Positive controls are reaction mixtures containing no test compound; negative controls (blanks) are reaction mixtures containing no kinase. After 15 minutes of pre-incubation of the test compounds with the kinase, a mixture of ATP and peptide substrate ([…]) in assay buffer is added to each well for a final concentration of 750 nM ATP and 500 nM peptide, respectively. After 90 minutes of incubation of the kinase reaction at 28° C. temperature, 10 μL of PKLight ATP Detection Reagent (warmed to room temperature previously) is added to each well. The assay plate is incubated at room temperature for additional 15 minutes and then read on an Analyst in luminescence mode. Dose-response experiments for each of the test compounds are conducted in quadruplet. IC50 values of test compounds represent 50% response of the positive control from the dose-response curve.
Target sequence in this assay (O75116 1-543): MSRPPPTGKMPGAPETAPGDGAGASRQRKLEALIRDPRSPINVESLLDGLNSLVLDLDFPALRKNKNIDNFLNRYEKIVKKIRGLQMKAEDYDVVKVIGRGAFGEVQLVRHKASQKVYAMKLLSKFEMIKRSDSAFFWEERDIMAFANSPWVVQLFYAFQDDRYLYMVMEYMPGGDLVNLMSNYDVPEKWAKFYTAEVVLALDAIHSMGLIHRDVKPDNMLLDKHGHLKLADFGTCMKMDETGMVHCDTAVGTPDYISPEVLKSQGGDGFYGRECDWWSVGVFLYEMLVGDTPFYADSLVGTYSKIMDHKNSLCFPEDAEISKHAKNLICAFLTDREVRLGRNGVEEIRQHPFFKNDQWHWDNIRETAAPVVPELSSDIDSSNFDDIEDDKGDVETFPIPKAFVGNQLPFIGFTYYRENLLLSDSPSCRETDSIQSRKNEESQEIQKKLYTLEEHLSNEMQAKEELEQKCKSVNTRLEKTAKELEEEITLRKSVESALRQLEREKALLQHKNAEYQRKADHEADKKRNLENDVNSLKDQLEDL
Take `CN1CCc2ccc(NC(=O)c3cccc(CNC(=O)c4ccc(-c5nnco5)cc4)c3)cc2C1` [compound 145]: the pIC50 (usually −log10 of the IC50, conventionally taken in molar units) was 7.31. For `CN1CCc2ccc(NC(=O)c3cccc(CNC(=O)c4cccc(-c5cccnc5)c4)c3)cc2C1` [compound 53], the negative-log IC50 (pIC50) is 7.55.

`CN1CCc2nc(NC(=O)c3cccc(CNC(=O)c4ccc(-c5cccnc5)s4)c3)sc2C1` [compound 110] showed a pIC50 of 7.81. The same measure, in the same setting: next, `CN1CCc2ccc(NC(=O)c3cccc(CNC(=O)C4=NC5=CC=NC(=O)C5C=C4)c3)cc2C1` (centres unmarked) [compound 122]: 7.56.

A further test has as its target T1, ROCKII (1-543). The experiment in a line: IMAP Assay (Assay 2). The class given is biochemical. As to conditions: IMAP fluorescence polarization; 100 μM ATP, 1 nM kinase. Here is the method: This assay is performed using FAM S6 substrate peptide (Catalogue #R7184) and IMAP FP Screening Express Kit detection reagents from Molecular Devices (Sunnyvale, Calif.) in IMAP kinase reaction buffer (Tris-HCl, pH 7.2, 10 mM MgCl2, 0.05% NaN3, 0.1% phosphate-free BSA) containing 1 mM DTT. Test compounds dissolved in neat DMSO at 0.3 mg/mL are serially diluted 1 to 3 for concentration response in 100% DMSO. The DMSO serial dilutions are further diluted 33.33-fold in kinase reaction buffer, and 10 μL of this buffer dilution is transferred to Corning black 96-well half area NBS plates for a final top concentration of 3 μg/mL in 1% DMSO. 10 μL aliquot of 3 nM ROCKII (1-543) diluted in kinase reaction buffer is added to each assay well for a final concentration of 1 nM kinase. 10 μL of a mixture of 600 nM FAM S6 peptide and 300 μM ATP diluted in kinase reaction buffer is added to each well for a final concentration of 200 nM peptide and 100 μM ATP. The kinase reaction mixture is incubated for 60 minutes at room temperature. Positive controls are reaction mixtures containing no test compound and negative controls (blanks) are reaction mixtures containing no kinase. The kinase reaction is stopped by addition of 60 μL IMAP progressive binding reagent (Catalog #R7284) diluted 400-fold in 1× Binding buffer A. After 30 min of incubation at room temperature, the plates are read for fluorescence polarization on Analyst Plate Reader using Ex 485 nm, Em 530 nm, and FL 505 dichroic minor. The mP signals are converted to percent of control (POC) values using the formula: POC=100*(Signal−BCTRL)÷(PCTRL−BCTRL)
Where Signal is the test well signal, BCTRL is the average of background (negative control) well signals on the plate and PCTRL is the average of positive control well signals on the plate. For the concentration-responsive compounds, POC as a function of test compound concentration is fitted to a 4-parameter logistic equation of the form: Y=A+(B−A)/[1+(x/C)D]
Where A, B, C, and D are fitted parameters (parameter B is fixed at zero POC), and x and y are the independent and dependent variables, respectively. The IC50 is determined as the inflection point parameter, C.
Target sequence in this assay (O75116 1-543, species assumed): as the sequence (O75116 1-543) above
On to `O=C(Nc1nc2c(s1)C[C@@H](N1CCOCC1)CC2)c1cccc(CNC(=O)c2csc(-c3ccncc3)n2)c1` [compound 164], for which the pIC50 is 9.03. Same read-out and setting: next, `CN(C)[C@H]1CCc2nc(NC(=O)c3cccc(CNC(=O)c4cccc(-c5cn[nH]c5)c4)c3)sc2C1` [compound 132]: 9.49; `Cc1nc(-c2ccncc2)sc1C(=O)NCc1cccc(C(=O)Nc2nc3c(s2)C[C@@H](N(C)C)CC3)c1` [compound 205]: 9.60; `CN(C)[C@H]1CCc2nc(NC(=O)c3cccc(CNC(=O)c4nnn(-c5nonc5N)c4-c4ccccc4)c3)sc2C1` [compound 138]: 9.68. The same measure, in the same setting: as for `CN1CCc2nc(NC(=O)c3cccc(CNC(=O)c4ccc(-c5cnco5)cc4)c3)sc2C1` [compound 12], the figure is 9.68. On the same count and under the same terms, next, `CN1CCc2ccc(NC(=O)c3cccc(CNC(=O)c4nc(-c5cccnc5)cs4)c3)cc2C1` [compound 202]: 7.14; `CN1CCc2nc(NC(=O)c3cccc(CNC(=O)c4ccc(-c5cn[nH]c5)s4)c3)sc2C1` [compound 120]: 9.11; `N#Cc1ccc2cc(C(=O)NCc3cccc(C(=O)Nc4nc5c(s4)C[C@@H](N4CCOCC4)CC5)c3)[nH]c2c1` [compound 176]: 9.06. For `CN1CCc2nc(NC(=O)c3cccc(CNC(=O)c4ccc(-n5ccnc5)cc4)c3)sc2C1` [compound 2], the negative logarithm of the IC50 (pIC50) is 8.72. Still for that read-out and setting: as for `Nc1nonc1-n1nnc(C(=O)NCc2cccc(C(=O)Nc3nc4c(s3)C[C@@H](N3CCOCC3)CC4)c2)c1-c1ccccc1` [compound 150], the figure is 8.58; as for `CN(C)[C@H]1CCc2nc(NC(=O)c3cccc(CNC(=O)c4cn5ccc(C#N)cc5n4)c3)sc2C1` [compound 98], 9.57; as for `O=C(NCc1cccc(C(=O)Nc2nc3c(s2)C[C@@H](N2CCOCC2)CC3)c1)c1ccc(-n2ccnc2)cc1` [compound 172], 9.42. On to `CN(C)[C@H]1CCc2nc(NC(=O)c3cccc(CNC(=O)c4csc(-c5ccncc5)n4)c3)sc2C1` [compound 140], for which the pIC50 was 9.06. Against the preceding molecule, the pIC50 is 0.36 log units lower. Same read-out and setting: next, `CN1CCc2nc(NC(=O)c3cccc(CNC(=O)c4cn5cc(C(N)=O)ccc5n4)c3)sc2C1` [compound 209]: 8.43; `CN1CCc2ccc(NC(=O)c3cccc(CNC(=O)c4ccc(-c5cn[nH]c5)s4)c3)cc2C1` [compound 78, 5-(1H-pyrazol-4-yl)-thiophene-2-carboxylic acid 3-(2-methyl-1,2,3,4-tetrahydro-isoquinolin-7-ylcarbamoyl)-benzylamide]: 9.77; `CN(C)[C@H]1CCc2nc(NC(=O)c3cccc(CNC(=O)c4ccc(-c5cnco5)cc4)c3)sc2C1` [compound 136]: 9.70. Same read-out and setting: as for `CN(C)[C@H]1CCc2nc(NC(=O)c3cccc(CNC(=O)c4csc(-c5cccnc5)n4)c3)sc2C1` [compound 108], the figure is 9.49; as for `CN(C)[C@H]1CCc2nc(NC(=O)c3cccc(CNC(=O)c4ccc(-c5cnco5)s4)c3)sc2C1` [compound 128], 9.43; as for `CN(C)[C@H]1CCc2nc(NC(=O)c3cccc(CNC(=O)c4ccc(-c5cn[nH]c5)s4)c3)sc2C1` [compound 130], 9.66.

On to `O=C(Nc1nc2c(s1)C[C@@H](N1CCOCC1)CC2)c1cccc(CNC(=O)c2cc(-c3ccncc3)[nH]n2)c1` [compound 166], for which the negative-log IC50 (pIC50) is 9.47.

For `CN1CCc2ccc(NC(=O)c3cccc(CNC(=O)c4cc5ccc(C(N)=O)cc5n4C)c3)cc2C1` [compound 84], the pIC50 is 9.59.

`O=C(NCc1cccc(C(=O)Nc2nc3c(s2)C[C@@H](N2CCOCC2)CC3)c1)c1ccc(-c2cnco2)cc1` [compound 162] had a negative logarithm of the IC50 (pIC50) of 9.37.

`Cc1c(C(=O)NCc2cccc(C(=O)Nc3nc4c(s3)C[C@@H](N(C)C)CC4)c2)nnn1-c1nonc1N` [compound 142] showed a negative logarithm of the IC50 (pIC50) of 9.48. The molecule `CN(C)[C@H]1CCc2nc(NC(=O)c3cccc(CNC(=O)c4ccc(-c5ccncc5)cc4)c3)sc2C1` [compound 106] had a pIC50 of 9.66. With `CN1CCc2ccc(NC(=O)c3cccc(CNC(=O)N4CCc5c(C#N)cccc54)c3)cc2C1` [compound 201, 4-cyano-2,3-dihydro-indole-1-carboxylic acid 3-(2-methyl-1,2,3,4-tetrahydro-isoquinolin-7-ylcarbamoyl)-benzylamide], the pIC50 is 7.47. Same read-out and setting: as for `CN1CCc2nc(NC(=O)c3cccc(CNC(=O)c4ccc5cc(O)ccc5c4)c3)sc2C1` [compound 20], the figure is 9.41; as for `CN1CCc2ccc(NC(=O)c3cccc(CNC(=O)c4ccc(-c5ccncc5)s4)c3)cc2C1` [compound 70], 9.60; as for `N#Cc1ccn2cc(C(=O)NCc3cccc(C(=O)Nc4nc5c(s4)C[C@@H](N4CCOCC4)CC5)c3)nc2c1` [compound 148], 9.28.

For `CN(C)[C@H]1CCc2nc(NC(=O)c3cccc(CNC(=O)c4cc(-c5ccncc5)[nH]n4)c3)sc2C1` [compound 207], the pIC50 is 9.70. On the same count and under the same terms, as for `CN(C)[C@H]1CCc2nc(NC(=O)c3cccc(CNC(=O)c4ccc(-c5ccncc5)s4)c3)sc2C1` [compound 126], the figure is 9.57; as for `N[C@@H]1CCc2nc(NC(=O)c3cccc(CNC(=O)c4csc(-c5ccncc5)n4)c3)sc2C1` [compound 32], 8.32; as for `O=C(Nc1nc2c(s1)C[C@@H](N1CCOCC1)CC2)c1cccc(CNC(=O)c2csc(-c3cccnc3)n2)c1` [compound 146], 9.14. The same measure, in the same setting: next, `O=C(NCc1cccc(C(=O)Nc2nc3c(s2)C[C@@H](N2CCOCC2)CC3)c1)c1cccc(-c2cn[nH]c2)c1` [compound 170]: 9.39; `Cc1nc(-c2ccncc2)sc1C(=O)NCc1cccc(C(=O)Nc2nc3c(s2)C[C@@H](N2CCOCC2)CC3)c1` [compound 168]: 9.43.

Take `CN1CCc2nc(NC(=O)c3cccc(CNC(=O)c4ccc(-c5ccncc5)cc4)c3)sc2C1` [compound 56]: the pIC50 was 9.59. As for `Cc1nnnn1-c1ccc(C(=O)NCc2cccc(C(=O)Nc3nc4c(s3)C[C@@H](N(C)C)CC4)c2)cc1` [compound 104], the pIC50 is 9.37. The same measure, in the same setting: as for `CN1CCc2nc(NC(=O)c3cccc(CNC(=O)c4ccc(-c5cnco5)s4)c3)sc2C1` [compound 114], the figure is 9.35. Same read-out and setting: as for `CN1CCc2nc(NC(=O)c3cccc(CNC(=O)c4ccc(-c5ccncc5)s4)c3)sc2C1` [compound 112], the figure is 9.74.

`Cc1nnnn1-c1ccc(C(=O)NCc2cccc(C(=O)Nc3nc4c(s3)C[C@@H](N3CCOCC3)CC4)c2)cc1` [compound 174] gave a negative-log IC50 (pIC50) of 9.46. Same read-out and setting: next, `CN(C)[C@H]1CCc2nc(NC(=O)c3cccc(CNC(=O)c4ccc(-n5ccnc5)cc4)c3)sc2C1` [compound 134]: 9.62.
